“And” between values parts separate entries of the source, which are not always exact repeats. Identical values can stand only once.
Key:
[1] = Molar enthalpy of transition or fusion; conditions: Crystal; DSC
[2] = for Normal melting temperature: DTA

O=C1c2ccccc2-c2ccccc21 [9(9H)-fluorenone]
Conditions	Molar enthalpy of transition or fusion [kcal/mol]
[1]	4.21

vapor or sublimation pressure [kPa], [2]
Conditions	Crystal	Liquid
312.19 K, Calculated from knudsen effusion weight loss	8.9e-05	–
314.21 K, Calculated from knudsen effusion weight loss	0.000115	–
316.11 K, Calculated from knudsen effusion weight loss	0.000143	–
318.18 K, Calculated from knudsen effusion weight loss	0.00018	–
320.2 K, Calculated from knudsen effusion weight loss	0.000225	–
322.11 K, Calculated from knudsen effusion weight loss	0.000273	–
324.19 K, Calculated from knudsen effusion weight loss	0.000344	–
326.19 K, Calculated from knudsen effusion weight loss	0.00043	–
326.88 K, Closed cell (Static) method	0.00045	–
327.85 K, Closed cell (Static) method	–	0.0008
328.11 K, Calculated from knudsen effusion weight loss	0.000528	–
328.32 K, Closed cell (Static) method	0.00053	–
329.82 K, Closed cell (Static) method	–	0.00095
329.83 K, Closed cell (Static) method	0.00061	–
330.18 K, Calculated from knudsen effusion weight loss	0.000638	–
331.3 K, Closed cell (Static) method	0.00072	–
331.79 K, Closed cell (Static) method	–	0.00112
332.18 K, Calculated from knudsen effusion weight loss	0.000796	–
332.81 K, Closed cell (Static) method	0.00085	–
333.8 K, Closed cell (Static) method	–	0.00133
334.1 K, Calculated from knudsen effusion weight loss	0.000977	–
334.29 K, Closed cell (Static) method	0.00098	–
335.78 K, Closed cell (Static) method	0.00113	0.00159
337.25 K, Closed cell (Static) method	0.00133	–
337.74 K, Closed cell (Static) method	–	0.00185
338.75 K, Closed cell (Static) method	0.00153	–
339.72 K, Closed cell (Static) method	–	0.00217
340.21 K, Closed cell (Static) method	0.00177	–
341.69 K, Closed cell (Static) method	0.00205	–
341.76 K, Closed cell (Static) method	–	0.00258
343.19 K, Closed cell (Static) method	0.00235	–
343.72 K, Closed cell (Static) method	–	0.00299
344.68 K, Closed cell (Static) method	0.00272	–
345.66 K, Closed cell (Static) method	–	0.00348
346.2 K, Closed cell (Static) method	0.00311	–
347.68 K, Closed cell (Static) method	0.00355	0.00409
349.17 K, Closed cell (Static) method	0.00409	–
349.66 K, Closed cell (Static) method	–	0.00468
350.65 K, Closed cell (Static) method	0.00467	–
351.63 K, Closed cell (Static) method	–	0.00545
352.14 K, Closed cell (Static) method	0.00544	–
353.63 K, Closed cell (Static) method	–	0.0063
355.58 K, Closed cell (Static) method	–	0.00731
357.59 K, Closed cell (Static) method	–	0.0084
359.82 K, Closed cell (Static) method	–	0.00981
361.57 K, Closed cell (Static) method	–	0.01112
361.59 K, Closed cell (Static) method	–	0.01107
363.79 K, Closed cell (Static) method	–	0.01285
365.52 K, Closed cell (Static) method	–	0.01446
367.74 K, Closed cell (Static) method	–	0.01661
369.53 K, Closed cell (Static) method	–	0.01887
371.72 K, Closed cell (Static) method	–	0.02159
373.53 K, Closed cell (Static) method	–	0.02435
375.67 K, Closed cell (Static) method	–	0.02768
377.47 K, Closed cell (Static) method	–	0.03128
379.65 K, Closed cell (Static) method	–	0.03529
381.4 K, Closed cell (Static) method	–	0.03955
383.6 K, Closed cell (Static) method	–	0.04451
385.47 K, Closed cell (Static) method	–	0.05021
387.56 K, Closed cell (Static) method	–	0.05645
391.51 K, Closed cell (Static) method	–	0.07082
393.41 K, Closed cell (Static) method	–	0.07755
395.41 K, Closed cell (Static) method	–	0.08762
397.36 K, Closed cell (Static) method	–	0.09675
399.35 K, Closed cell (Static) method	–	0.1089
401.32 K, Closed cell (Static) method	–	0.1202
403.3 K, Closed cell (Static) method	–	0.1342
406.25 K, Closed cell (Static) method	–	0.1558
407.26 K, Closed cell (Static) method	–	0.1646
409.18 K, Closed cell (Static) method	–	0.1808
411.21 K, Closed cell (Static) method	–	0.2014
413.17 K, Closed cell (Static) method	–	0.2206
415.17 K, Closed cell (Static) method	–	0.244
417.11 K, Closed cell (Static) method	–	0.2679
419.13 K, Closed cell (Static) method	–	0.2948
421.06 K, Closed cell (Static) method	–	0.3242
423.04 K, Closed cell (Static) method	–	0.355
425 K, Closed cell (Static) method	–	0.3873
427.02 K, Closed cell (Static) method	–	0.4288
428.95 K, Closed cell (Static) method	–	0.467
430.77 K, Closed cell (Static) method	–	0.511
432.92 K, Closed cell (Static) method	–	0.5574
434.9 K, Closed cell (Static) method	–	0.604
436.86 K, Closed cell (Static) method	–	0.6602
438.87 K, Closed cell (Static) method	–	0.7204
440.85 K, Closed cell (Static) method	–	0.7844

Conditions	Normal melting temperature [°C]
[2], Crystal	83.01

OC1c2ccccc2-c2ccccc21 [9H-fluoren-9-ol]
Conditions	Molar enthalpy of transition or fusion [kcal/mol]
[1]	5.78

[2]
Conditions	vapor or sublimation pressure
337.16 K, Crystal, Calculated from knudsen effusion weight loss	0.000106 kPa
339.13 K, Crystal, Calculated from knudsen effusion weight loss	0.000132 kPa
341.1 K, Crystal, Calculated from knudsen effusion weight loss	0.000163 kPa
343.16 K, Crystal, Calculated from knudsen effusion weight loss	0.000196 kPa
345.09 K, Crystal, Calculated from knudsen effusion weight loss	0.000243 kPa
347.09 K, Crystal, Calculated from knudsen effusion weight loss	0.000307 kPa
349.15 K, Crystal, Calculated from knudsen effusion weight loss	0.000385 kPa
350.76 K, Crystal, Closed cell (Static) method	0.00051 kPa
351.11 K, Crystal, Calculated from knudsen effusion weight loss	0.00047 kPa
352.75 K, Crystal, Closed cell (Static) method	0.00062 kPa
353.11 K, Crystal, Calculated from knudsen effusion weight loss	0.000579 kPa
354.71 K, Crystal, Closed cell (Static) method	0.00075 kPa
355.1 K, Crystal, Calculated from knudsen effusion weight loss	0.00071 kPa
356.59 K, Crystal, Closed cell (Static) method	0.00092 kPa
357.09 K, Crystal, Calculated from knudsen effusion weight loss	0.000884 kPa
358.67 K, Crystal, Closed cell (Static) method	0.00113 kPa
359.09 K, Crystal, Calculated from knudsen effusion weight loss	0.001078 kPa
360.98 K, Crystal, Closed cell (Static) method	0.00139 kPa
362.63 K, Crystal, Closed cell (Static) method	0.00165 kPa
364.58 K, Crystal, Closed cell (Static) method	0.00198 kPa
366.55 K, Crystal, Closed cell (Static) method	0.00238 kPa
368.53 K, Crystal, Closed cell (Static) method	0.0029 kPa
370.51 K, Crystal, Closed cell (Static) method	0.00343 kPa
372.48 K, Crystal, Closed cell (Static) method	0.00418 kPa
372.51 K, Crystal, Closed cell (Static) method	0.00419 kPa
374.53 K, Crystal, Closed cell (Static) method	0.00504 kPa
376.49 K, Crystal, Closed cell (Static) method	0.00599 kPa
378.48 K, Crystal, Closed cell (Static) method	0.00711 kPa
380.44 K, Crystal, Closed cell (Static) method	0.00855 kPa
382.39 K, Crystal, Closed cell (Static) method	0.01001 kPa
384.38 K, Crystal, Closed cell (Static) method	0.01183 kPa
386.35 K, Crystal, Closed cell (Static) method	0.01393 kPa
388.32 K, Crystal, Closed cell (Static) method	0.01662 kPa
390.28 K, Crystal, Closed cell (Static) method	0.0195 kPa
392.27 K, Crystal, Closed cell (Static) method	0.02263 kPa
394.22 K, Crystal, Closed cell (Static) method	0.02684 kPa
396.22 K, Crystal, Closed cell (Static) method	0.03155 kPa
398.16 K, Crystal, Closed cell (Static) method	0.03678 kPa
400.1 K, Crystal, Closed cell (Static) method	0.04277 kPa
402.11 K, Crystal, Closed cell (Static) method	0.05007 kPa
404.04 K, Crystal, Closed cell (Static) method	0.05782 kPa
406.06 K, Crystal, Closed cell (Static) method	0.06738 kPa
407.96 K, Crystal, Closed cell (Static) method	0.07784 kPa
409.98 K, Liquid, Closed cell (Static) method	0.1186 kPa
410 K, Crystal, Closed cell (Static) method	0.09038 kPa
411.89 K, Crystal, Closed cell (Static) method	0.104 kPa
411.93 K, Liquid, Closed cell (Static) method	0.1331 kPa
413.86 K, Crystal, Closed cell (Static) method	0.1211 kPa
413.91 K, Liquid, Closed cell (Static) method	0.15 kPa
415.85 K, Crystal, Closed cell (Static) method	0.1377 kPa
415.88 K, Liquid, Closed cell (Static) method	0.1652 kPa
417.82 K, Crystal, Closed cell (Static) method	0.1592 kPa
417.86 K, Liquid, Closed cell (Static) method	0.1822 kPa
419.78 K, Crystal, Closed cell (Static) method	0.1848 kPa
419.81 K, Liquid, Closed cell (Static) method	0.2047 kPa
421.73 K, Crystal, Closed cell (Static) method	0.2084 kPa
421.79 K, Liquid, Closed cell (Static) method	0.2266 kPa
423.71 K, Crystal, Closed cell (Static) method	0.2411 kPa
423.75 K, Liquid, Closed cell (Static) method	0.2538 kPa
425.74 K, Liquid, Closed cell (Static) method	0.2828 kPa
427.7 K, Liquid, Closed cell (Static) method	0.3131 kPa and 0.3096 kPa
429.67 K, Liquid, Closed cell (Static) method	0.3457 kPa
431.58 K, Liquid, Closed cell (Static) method	0.3815 kPa
431.6 K, Liquid, Closed cell (Static) method	0.3843 kPa
433.57 K, Liquid, Closed cell (Static) method	0.4239 kPa
435.51 K, Liquid, Closed cell (Static) method	0.4605 kPa
435.52 K, Liquid, Closed cell (Static) method	0.4642 kPa
437.51 K, Liquid, Closed cell (Static) method	0.5099 kPa
439.47 K, Liquid, Closed cell (Static) method	0.5625 kPa
441.42 K, Liquid, Closed cell (Static) method	0.615 kPa

Conditions	Normal melting temperature [°C]
[2], Crystal	155.6

Source: the NIST ThermoML archive (doi:10.1021/je300584m)
